One assay concerns the target T1, AR-LBD wt (Homo sapiens, UniProt P10275).
T1 sequence (P10275 669-900 limits assumed): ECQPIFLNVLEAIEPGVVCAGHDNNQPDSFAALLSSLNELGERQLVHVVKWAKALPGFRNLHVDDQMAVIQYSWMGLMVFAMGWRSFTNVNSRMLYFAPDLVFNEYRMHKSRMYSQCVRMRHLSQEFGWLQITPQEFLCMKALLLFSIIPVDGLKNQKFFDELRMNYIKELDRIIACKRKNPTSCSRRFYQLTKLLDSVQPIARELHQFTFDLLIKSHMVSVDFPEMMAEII
The experiment in a line: Lanthascreen TR-FRET AR coactivator (D11-FxxLF) assay, AR-LBD wt. The assay is classed as biochemical. Particulars: for IC50: TR-FRET, D11-FxxLF peptide, DHT = EC80. On the technique in general: TR-FRET usually uses a lanthanide donor and a delayed reading to cut background.

For a further assay, the target named is T2, AR-LBD T877A mutant (Homo sapiens, UniProt P10275, T878A).
T2 construct: purchased Invitrogen PV4667
T2 sequence (P10275 669-900 T878A): T1 sequence (P10275 669-900 limits assumed) with T210A
As to the kind of experiment: TR-FRET coactivator assay, AR T877A mutant. The assay is classed as biochemical. The following applies: D11-FxxLF peptide, DHT = EC80.

Assay [1] has as its target T3, Progesterone Receptor (PR) LBD (Homo sapiens, UniProt P06401).
T3 construct: purchased Invitrogen PV4666
T3 sequence (P06401 679-913 limits assumed): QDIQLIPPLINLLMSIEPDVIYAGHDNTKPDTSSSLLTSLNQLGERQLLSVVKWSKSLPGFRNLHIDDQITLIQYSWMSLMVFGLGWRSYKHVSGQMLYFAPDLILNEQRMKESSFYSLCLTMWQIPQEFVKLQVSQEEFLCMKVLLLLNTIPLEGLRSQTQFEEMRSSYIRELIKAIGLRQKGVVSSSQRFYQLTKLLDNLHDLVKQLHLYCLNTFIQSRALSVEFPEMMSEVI
As to the kind of experiment: TR-FRET SRC1-4 coactivator recruitment assay, PR LBD. The assay is classed as biochemical. Particulars: Progesterone = EC80. As for the experimental part:
Compound binding affinities for Progesterone Receptor (PR), Glucocorticoid Receptor (GR), Estrogen Receptor alpha and Estrogen Receptor beta were determined using TR-FRET (Table 2).
Lanthascreen TR-FRET AR Coactivator Assay kit (Invitrogen, cat no. PV4381) was used to screen for potential coactivator disruptors.
TR FRET values were calculated at 10 flashes per well, using a delay time of 100 μs and integration time 200 μs as recommended by the Invitrogen assay guidelines. […] A serial dilution of compounds was firstly prepared in 100×DMSO (Sigma-Aldrich) starting from the maximum desired concentration to achieve a 12 point range concentration using 96-well polypropylene plates (Nalgene Nunc, Rochester, N.Y.). Each 100× solution was diluted to 2× concentration with TR-FRET co-regulator buffer A (Invitrogen proprietary buffer), yielding a final concentration of 1% DMSO in each well.
D11-FxxLF and Tb antibody were premixed in light protecting vials prior to use. A final concentration of DTT 5 mM was used in the assay buffer in order to prevent protein degradation. All plates (agonist and antagonist mode) were incubated between 2 and 4 hours at room temperature protected from light prior to TR-FRET measurement. […] Data was fitted using the sigmoidal dose response (variable slope) available from Graphpad Prism 5. Y=Bottom+(Top-Bottom)/(1+10^((Log IC50−X)*HillSlope))
The same procedure was used for AR T877A (Invitrogen cat no. PV4667), PR (Invitrogen cat no. PV4666), ER-α (Invitrogen cat no. PV4544), ER-β (Invitrogen cat no. PV4541) and GR (Invitrogen cat no. PV4683). The assay was adapted to exclude possible non-specific aggregation mechanism of inhibition by adding very low concentration of detergent Triton X-100 (0.001%) to the assay buffer following the Shoichet review guidelines [Shoichet BK (2006) Screening in a spirit haunted world. Drug Discov Today 11:607-615].

The test system of assay [2] is PSA expression in LNCaP cells. As to the kind of experiment: PSA ELISA, secreted PSA in LNCaP cells. The assay is classed as cell-based. As for the experimental part:
(§1) To investigate compounds effect on PSA expression, a common biomarker for prostate cancer, we utilized a human PSA ELISA assay.
For cell viability (end point) assays LNCaP, PC-3 and PWR-1E cells were seeded at 2.5*10^4/ml density in 200 μl volume of a 96-well plate in triplicate and incubated for 24 hours prior testing. Test compounds were included at different concentrations to achieve a final concentration of 0.5% DMSO in each well. Effect of 0.5% DMSO on cell-viability was also evaluated. Cell viability was assessed after 24 hours of treatment using 10% Alamar Blue reagent (Invitrogen) for each well. Cell viability was monitored by the reduction of resazurin, a blue, cell-permeable and non-toxic compound, to resorufin, a red and highly fluorescent product. Viable cells continuously convert resazurin to resorufin, increasing the overall colour and fluorescence of the media surrounding cells. Fluorescence intensity can be quantitatively determined with a fluorescence microplate reader at excitation/emission 544 nm/590 nm (Spectramax Gemini). For hormone dependent cell proliferation assays in androgen deprived LNCaP cells, cells were seeded at 2*10^4 cells/ml in a 24-well plate in triplicate. Cells were plated in phenol red free RPMI Glutamax (Invitrogen) supplemented with 10% charcoal-stripped FBS to deplete endogenous steroids 48 hours prior the assay as described in previous reports. […] Cells were treated with different concentrations of test compounds with or without 0.1 nM DHT to achieve a final concentration of 0.1% DMSO in each well. A control for the vehicle was included to ensure no effect on viability could be detected. Media and treatments were replaced every second day, after washing the cells twice with 1×PBS. Supernatants were collected after five days for secreted PSA levels evaluation and cell proliferation was assessed for the same plate using Alamar Blue in order to exclude non-specific effects due to toxicity issues.
Secreted levels of prostate specific antigen were evaluated with a commercially available kit (Quantikine Human Kallikrein 3/PSA Immunoassay, R&D systems). The assay was performed following manufacturer's guidelines. In brief, 50 μl of standards and cell culture samples were added to pre-coated wells containing assay diluent RD1W (R&D systems) and incubated for two hours at room temperature. […] Wells were washed and treated with colored substrate (Tetramethylbenzidine) for an additional 30 minutes, after which 50 μl of stop solution (Sulphuric Acid 2N) was added per well and absorbance (450 nm with correction at 540 nm) was read with a plate reader within 30 minutes (Versamax).
Background: In an ELISA, binding on a coated surface is turned into a signal by an enzyme label.

Assay [3] deals with PSA expression in 22Rv1 cells. The experiment in a line: PSA ELISA, secreted PSA in 22Rv1 cells. The format is cell-based. As for the experimental part:
as §1
(§2) We repeated the same experiment in 22Rv1 cell line.
Secreted levels of prostate specific antigen were evaluated with a commercially available kit (Quantikine Human Kallikrein 3/PSA Immunoassay, R&D systems). The assay was performed following manufacturer's guidelines. In brief, 50 μl of standards and cell culture samples were added to pre-coated wells containing assay diluent RD1W (R&D systems) and incubated for two hours at room temperature. Unbound material was washed several times and 200 μl of Horseradish Peroxidase (HRP) labeled PSA conjugate antibody was added to each well and further incubated for two hours at room temperature. Wells were washed and treated with colored substrate (Tetramethylbenzidine) for an additional 30 minutes, after which 50 μl of stop solution (Sulphuric Acid 2N) was added per well and absorbance (450 nm with correction at 540 nm) was read with a plate reader within 30 minutes (Versamax).

The subject of the next assay is 22Rv1 cells. The experiment in a line: 22Rv1 cell proliferation assay. The assay is classed as cell-based. As for the experimental part:
Thus, inhibition on cell proliferation by the compounds could not be evaluated (FIG. 14)
as §2
For cell viability (end point) assays LNCaP, PC-3 and PWR-1E cells were seeded at 2.5*10^4/ml density in 200 μl volume of a 96-well plate in triplicate and incubated for 24 hours prior testing. Test compounds were included at different concentrations to achieve a final concentration of 0.5% DMSO in each well. Effect of 0.5% DMSO on cell-viability was also evaluated. Cell viability was assessed after 24 hours of treatment using 10% Alamar Blue reagent (Invitrogen) for each well. Cell viability was monitored by the reduction of resazurin, a blue, cell-permeable and non-toxic compound, to resorufin, a red and highly fluorescent product. Viable cells continuously convert resazurin to resorufin, increasing the overall colour and fluorescence of the media surrounding cells. Fluorescence intensity can be quantitatively determined with a fluorescence microplate reader at excitation/emission 544 nm/590 nm (Spectramax Gemini). […] A control for the vehicle was included to ensure no effect on viability could be detected. […] Supernatants were collected after five days for secreted PSA levels evaluation and cell proliferation was assessed for the same plate using Alamar Blue in order to exclude non-specific effects due to toxicity issues.

Positions count from the first letter of the chain named. Like-named read-outs stand apart in the source and are kept apart here.

The source of these data is patent publication US9296716B2, “Androgen receptor ligands” (THE PROVOST, FELLOWS, FOUNDATION SCHOLARS, & THE OTHER …, priority 2011, dated 2016).

For `COc1cc(/C=N/NC(=O)c2cc3c(ccc4ccccc43)o2)cc(OC)c1O` [MDG506], the “type of AR antagonism (full / partial)” value at AR-LBD wt (TR-FRET in agonist and antagonist mode) is recorded as “full AR antagonists”. The IC50 was determined as 26.3 ± 3.8 µM on AR-LBD wt (read-out: AR (wt)); 26.3 ± 3.8 µM on AR-LBD wt (read-out: Activity (AR wt TR-FRET)); 33.2 ± 5.9 µM at AR-LBD T877A mutant; 27.7 ± 7.3 µM in assay [1] (TR-FRET, ± SEM (n = 6), read-out: NR LBDs IC50 (μM) PR). In assay [1] (100 μM to 45 nM), the “effect on PR recruitment of fluorescent labelled SRC1-4” value is on record as “partially inhibit”. Moreover, the “PSA expression in absence of androgens” value in assay [2] and in assay [3] (22Rv1) was “does not induce” throughout. Besides, the “CPA stimulated PSA secretion / expression” value in assay [2] (MDG506 at 10 or 20 μM) is reported as “significantly (P<0.001) reduces”. Further, the “DHT stimulated PSA expression” value was “dose dependent inhibition” in assay [2] (concentrations up to 20 μM) and “no effect could be seen” in assay [3] (22Rv1). In addition, the “CPA stimulated PSA expression” value in assay [3] (22Rv1, MDG506 at different concentrations) is “reduced”. Also, the “cell proliferation in absence of androgens” value in the assay with 22Rv1 cells is “does not induce”.
